Experimental data published in the kinase profiling compilation of Christmann-Franck et al. (2016).
Values belong to the compound of their own block, whether it stands above or below them.

Legend:
PDPK1 (human) [1] = target: PDPK1 (human) (UniProt O15530); experiment: SelectScreen, TR FRET; settings: compound 1.0 µM
PDGFRB (human) = PDGFRB (human) (UniProt P09619); experiment: SelectScreen, TR FRET; settings: compound 1.0 µM
AKT1 (human) = AKT1 (human) (UniProt P31749); experiment: SelectScreen, TR FRET; settings: compound 1.0 µM
FLT4 (human) = FLT4 (human) (UniProt P35916); experiment: SelectScreen, TR FRET; settings: compound 1.0 µM
KDR (human) = KDR (human) (UniProt P35968); experiment: SelectScreen, TR FRET; settings: compound 1.0 µM
AURKA (human) = AURKA (human) (UniProt O14965); experiment: SelectScreen, TR FRET; settings: compound 1.0 µM
CHEK2 (human) = CHEK2 (human) (UniProt O96017); experiment: SelectScreen, TR FRET; settings: compound 1.0 µM
PDGFRA (human) = PDGFRA (human) (UniProt P16234); experiment: SelectScreen, TR FRET; settings: compound 1.0 µM
EPHA1 (human) = EPHA1 (human) (UniProt P21709); experiment: SelectScreen, TR FRET; settings: compound 1.0 µM
CAMK1G (human) = CAMK1G (human) (UniProt Q96NX5); experiment: KINOMEscan competition binding; settings: compound 10.0 µM
TNK2 (human) = TNK2 (human) (UniProt Q07912); experiment: KINOMEscan competition binding
TAOK2 (human) = TAOK2 (human) (UniProt Q9UL54); experiment: KINOMEscan competition binding; settings: compound 10.0 µM
CRK2 (P.falciparum) = CRK2 (P.falciparum) (UniProt P61075); experiment: KINOMEscan competition binding; settings: compound 10.0 µM
MYLK3 (human) = MYLK3 (human) (UniProt Q32MK0); experiment: KINOMEscan competition binding
MAP3K12 (human) = MAP3K12 (human) (UniProt Q12852); experiment: KINOMEscan competition binding
CPK1 (P.falciparum) = experiment: KINOMEscan competition binding; settings: compound 10.0 µM
SBK1 (human) = SBK1 (human) (UniProt Q52WX2); experiment: KINOMEscan competition binding
PRKACA (human) [2] = target: PRKACA (human) (UniProt P17612); experiment: KINOMEscan competition binding
CSNK1A1L (human) = CSNK1A1L (human) (UniProt Q8N752); experiment: KINOMEscan competition binding
BMPR1A (human) = BMPR1A (human) (UniProt P36894); experiment: KINOMEscan competition binding; settings: compound 1.0 µM
TAOK1 (human) = TAOK1 (human) (UniProt Q7L7X3); experiment: KINOMEscan competition binding; settings: compound 1.0 µM
MAPK9 (human) = MAPK9 (human) (UniProt P45984)
PRKACA (human) [3] = target: PRKACA (human) (UniProt P17612)
PDPK1 (human) [4] = target: PDPK1 (human) (UniProt O15530)

Sequence of PDPK1 (human) (O15530 whole entry, looked up): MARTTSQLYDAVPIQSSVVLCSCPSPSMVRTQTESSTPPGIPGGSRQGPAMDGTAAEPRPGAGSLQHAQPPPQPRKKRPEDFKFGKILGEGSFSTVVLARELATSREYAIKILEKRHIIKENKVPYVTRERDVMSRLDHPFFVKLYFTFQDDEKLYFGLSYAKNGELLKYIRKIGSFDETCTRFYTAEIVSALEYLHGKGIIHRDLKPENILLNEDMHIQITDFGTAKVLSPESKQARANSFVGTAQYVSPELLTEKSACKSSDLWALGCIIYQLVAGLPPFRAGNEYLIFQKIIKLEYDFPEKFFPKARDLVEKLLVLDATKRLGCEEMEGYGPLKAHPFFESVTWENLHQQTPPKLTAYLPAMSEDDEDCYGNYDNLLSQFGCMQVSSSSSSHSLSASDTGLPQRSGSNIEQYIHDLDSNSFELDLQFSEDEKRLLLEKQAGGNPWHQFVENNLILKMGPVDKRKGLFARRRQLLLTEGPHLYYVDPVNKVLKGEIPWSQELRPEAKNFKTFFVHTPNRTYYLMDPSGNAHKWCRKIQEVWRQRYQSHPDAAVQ
Sequence of TNK2 (human) (Q07912 whole entry, looked up): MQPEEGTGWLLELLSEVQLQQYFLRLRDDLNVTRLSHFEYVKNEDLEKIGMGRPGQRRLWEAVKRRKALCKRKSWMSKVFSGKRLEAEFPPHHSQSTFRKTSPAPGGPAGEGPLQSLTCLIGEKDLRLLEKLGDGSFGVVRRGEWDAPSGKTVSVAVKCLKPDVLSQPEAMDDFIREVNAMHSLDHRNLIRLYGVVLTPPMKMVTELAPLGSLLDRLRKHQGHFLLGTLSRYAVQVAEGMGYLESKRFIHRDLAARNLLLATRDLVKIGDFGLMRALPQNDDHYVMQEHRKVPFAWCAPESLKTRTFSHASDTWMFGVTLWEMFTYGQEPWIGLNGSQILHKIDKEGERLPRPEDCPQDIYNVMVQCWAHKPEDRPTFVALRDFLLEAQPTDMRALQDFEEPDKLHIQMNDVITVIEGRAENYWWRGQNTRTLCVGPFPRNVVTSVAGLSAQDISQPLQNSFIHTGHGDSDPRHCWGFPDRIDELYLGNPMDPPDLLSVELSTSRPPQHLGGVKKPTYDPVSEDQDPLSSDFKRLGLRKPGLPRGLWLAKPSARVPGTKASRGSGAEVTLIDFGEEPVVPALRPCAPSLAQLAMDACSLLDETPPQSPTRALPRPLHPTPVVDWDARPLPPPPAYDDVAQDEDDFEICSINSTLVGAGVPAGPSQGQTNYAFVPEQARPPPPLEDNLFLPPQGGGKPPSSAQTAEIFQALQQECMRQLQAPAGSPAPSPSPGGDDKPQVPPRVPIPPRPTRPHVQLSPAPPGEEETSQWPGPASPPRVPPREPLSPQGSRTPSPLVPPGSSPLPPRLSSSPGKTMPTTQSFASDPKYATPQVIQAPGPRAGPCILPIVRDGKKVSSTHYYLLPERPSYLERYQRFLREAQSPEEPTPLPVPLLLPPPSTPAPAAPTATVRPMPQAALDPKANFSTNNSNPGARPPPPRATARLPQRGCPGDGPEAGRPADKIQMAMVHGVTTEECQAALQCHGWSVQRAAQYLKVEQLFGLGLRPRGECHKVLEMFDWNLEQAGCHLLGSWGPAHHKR
Sequence of MYLK3 (human) (Q32MK0 whole entry, looked up): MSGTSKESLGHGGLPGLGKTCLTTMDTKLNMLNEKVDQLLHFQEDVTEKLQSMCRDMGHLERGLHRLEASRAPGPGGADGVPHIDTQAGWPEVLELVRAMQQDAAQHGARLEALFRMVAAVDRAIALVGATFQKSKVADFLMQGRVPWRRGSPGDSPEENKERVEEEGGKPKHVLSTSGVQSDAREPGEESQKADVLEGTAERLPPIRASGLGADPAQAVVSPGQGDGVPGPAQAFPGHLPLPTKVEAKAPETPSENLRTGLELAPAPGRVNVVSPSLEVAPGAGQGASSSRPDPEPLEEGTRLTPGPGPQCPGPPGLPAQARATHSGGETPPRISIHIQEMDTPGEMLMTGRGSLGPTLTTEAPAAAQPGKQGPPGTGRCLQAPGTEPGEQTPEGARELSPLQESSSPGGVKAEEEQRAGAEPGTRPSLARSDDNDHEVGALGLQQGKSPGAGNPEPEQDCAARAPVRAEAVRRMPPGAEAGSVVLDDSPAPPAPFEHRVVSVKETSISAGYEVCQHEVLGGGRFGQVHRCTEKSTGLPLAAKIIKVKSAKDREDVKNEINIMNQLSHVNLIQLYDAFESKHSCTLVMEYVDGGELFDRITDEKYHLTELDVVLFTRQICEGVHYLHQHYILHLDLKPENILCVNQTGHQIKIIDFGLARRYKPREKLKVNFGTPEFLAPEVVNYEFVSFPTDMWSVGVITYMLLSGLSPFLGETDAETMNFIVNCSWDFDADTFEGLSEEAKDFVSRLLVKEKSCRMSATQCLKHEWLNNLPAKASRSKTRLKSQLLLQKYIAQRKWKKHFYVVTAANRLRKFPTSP
Sequence of MAP3K12 (human) (Q12852 whole entry, looked up): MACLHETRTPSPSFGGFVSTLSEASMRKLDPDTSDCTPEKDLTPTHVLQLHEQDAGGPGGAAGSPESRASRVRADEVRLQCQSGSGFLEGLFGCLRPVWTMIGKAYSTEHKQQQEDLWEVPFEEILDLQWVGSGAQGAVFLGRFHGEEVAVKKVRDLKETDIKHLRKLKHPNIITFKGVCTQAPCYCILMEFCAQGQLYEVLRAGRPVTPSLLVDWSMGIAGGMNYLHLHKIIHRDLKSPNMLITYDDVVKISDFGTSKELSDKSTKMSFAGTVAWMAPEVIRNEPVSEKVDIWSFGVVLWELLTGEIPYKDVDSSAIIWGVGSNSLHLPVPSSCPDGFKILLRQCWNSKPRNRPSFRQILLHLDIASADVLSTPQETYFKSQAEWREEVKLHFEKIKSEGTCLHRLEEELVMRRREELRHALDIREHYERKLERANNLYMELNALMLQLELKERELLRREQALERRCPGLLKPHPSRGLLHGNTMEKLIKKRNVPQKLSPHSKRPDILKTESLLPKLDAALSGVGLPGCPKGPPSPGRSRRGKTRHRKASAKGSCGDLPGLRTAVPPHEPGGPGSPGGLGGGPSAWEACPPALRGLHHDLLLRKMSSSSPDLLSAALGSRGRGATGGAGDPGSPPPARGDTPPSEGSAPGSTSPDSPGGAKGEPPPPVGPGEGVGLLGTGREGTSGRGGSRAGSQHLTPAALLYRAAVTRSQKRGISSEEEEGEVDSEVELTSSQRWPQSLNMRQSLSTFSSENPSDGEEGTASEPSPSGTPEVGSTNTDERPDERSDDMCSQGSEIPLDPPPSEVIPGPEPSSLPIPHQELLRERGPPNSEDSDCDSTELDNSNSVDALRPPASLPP
Sequence of CRK2 (P.falciparum) (P61075 whole entry, looked up): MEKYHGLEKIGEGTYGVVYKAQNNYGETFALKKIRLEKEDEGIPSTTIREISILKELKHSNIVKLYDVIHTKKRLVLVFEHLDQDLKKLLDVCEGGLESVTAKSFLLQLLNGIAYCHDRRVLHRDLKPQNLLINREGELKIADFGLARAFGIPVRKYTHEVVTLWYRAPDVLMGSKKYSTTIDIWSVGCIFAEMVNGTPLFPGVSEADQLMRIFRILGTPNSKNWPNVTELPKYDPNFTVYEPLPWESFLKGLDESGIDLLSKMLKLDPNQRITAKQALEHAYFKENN
Sequence of MAPK9 (human) (P45984 whole entry, looked up): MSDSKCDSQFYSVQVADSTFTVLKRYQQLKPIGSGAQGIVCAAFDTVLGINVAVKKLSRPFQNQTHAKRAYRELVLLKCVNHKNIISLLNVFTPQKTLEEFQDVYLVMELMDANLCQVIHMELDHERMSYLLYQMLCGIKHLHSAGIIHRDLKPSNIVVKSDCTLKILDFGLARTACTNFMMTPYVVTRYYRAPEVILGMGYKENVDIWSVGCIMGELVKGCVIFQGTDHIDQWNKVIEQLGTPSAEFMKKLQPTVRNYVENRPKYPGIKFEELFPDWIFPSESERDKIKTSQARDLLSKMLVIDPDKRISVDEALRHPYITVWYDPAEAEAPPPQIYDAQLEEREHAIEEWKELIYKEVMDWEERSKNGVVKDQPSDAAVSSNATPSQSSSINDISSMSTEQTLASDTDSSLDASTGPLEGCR
Sequence of CSNK1A1L (human) (Q8N752 whole entry, looked up): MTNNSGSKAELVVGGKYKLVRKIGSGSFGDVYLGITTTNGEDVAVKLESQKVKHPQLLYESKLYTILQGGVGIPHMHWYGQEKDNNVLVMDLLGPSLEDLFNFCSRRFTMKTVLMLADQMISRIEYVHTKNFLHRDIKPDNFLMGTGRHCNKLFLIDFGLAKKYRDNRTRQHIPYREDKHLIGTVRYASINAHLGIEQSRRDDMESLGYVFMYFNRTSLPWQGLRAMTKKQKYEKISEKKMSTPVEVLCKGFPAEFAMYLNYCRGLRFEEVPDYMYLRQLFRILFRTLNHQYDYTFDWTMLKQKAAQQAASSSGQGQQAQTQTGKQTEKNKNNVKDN
Sequence of CAMK1G (human) (Q96NX5 whole entry, looked up): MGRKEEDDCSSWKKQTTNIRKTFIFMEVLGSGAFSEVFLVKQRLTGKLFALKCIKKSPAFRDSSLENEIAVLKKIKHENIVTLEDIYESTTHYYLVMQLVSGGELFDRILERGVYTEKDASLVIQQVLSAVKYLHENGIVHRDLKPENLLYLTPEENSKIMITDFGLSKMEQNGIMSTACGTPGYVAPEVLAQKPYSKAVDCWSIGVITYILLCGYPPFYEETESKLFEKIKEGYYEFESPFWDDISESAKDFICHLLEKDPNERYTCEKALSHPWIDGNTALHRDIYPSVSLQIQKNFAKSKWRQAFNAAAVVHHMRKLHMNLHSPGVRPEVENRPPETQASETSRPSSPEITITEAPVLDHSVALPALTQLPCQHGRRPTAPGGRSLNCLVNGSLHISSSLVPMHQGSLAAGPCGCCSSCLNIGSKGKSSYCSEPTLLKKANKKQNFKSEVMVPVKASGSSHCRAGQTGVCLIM

residual activity (PDPK1 (human) [1]): 100%
SMILES: CC(C)(O)c1ccc(-c2cnc3c(n2)N(CC2CCOCC2)CC(=O)N3)cn1

inhibition (PDGFRB (human)): -97%
inhibition (AKT1 (human)): -17%
inhibition (FLT4 (human)): -86%
inhibition (KDR (human)): -99%
inhibition (AURKA (human)): -48%
inhibition (CHEK2 (human)): -10%
inhibition (PDGFRA (human)): -85%
inhibition (EPHA1 (human)): -20%
SMILES: CC(C)(C)c1cc(NC(=O)NCc2ccc(-c3cc(NC(=O)c4ccc(OCCN5CCOCC5)cc4)[nH]n3)cc2)no1

kinase still bound, per cent of control (CAMK1G (human)): 100%
kinase still bound, per cent of control (TNK2 (human); compound 10.0 µM): 100%
kinase still bound, per cent of control (TAOK2 (human)): 100%
kinase still bound, per cent of control (CRK2 (P.falciparum)): 100%
kinase still bound, per cent of control (MYLK3 (human); compound 10.0 µM): 100%
residual activity (MAP3K12 (human); compound 10.0 µM): 100%
kinase still bound, per cent of control (CPK1 (P.falciparum)): 100%
SMILES: O=C(Nc1cccnc1)c1cc(-c2ccnc(F)c2)ccc1OCc1ccccc1

Kd (SBK1 (human)): > 10 µM
Kd (TNK2 (human)): 0.015 µM
Kd (PRKACA (human) [2]): > 10 µM
Kd (MYLK3 (human)): > 10 µM
Kd (CSNK1A1L (human)): > 10 µM
Kd (MAP3K12 (human)): > 10 µM
SMILES: CO[C@@H]1[C@H](N(C)C(=O)c2ccccc2)C[C@H]2O[C@]1(C)n1c3ccccc3c3c4c(c5c6ccccc6n2c5c31)C(=O)NC4O (some centres not stated)

kinase still bound, per cent of control (BMPR1A (human)): 100%
kinase still bound, per cent of control (TAOK1 (human)): 100%
SMILES: Nc1ccccc1Nc1ccc2c(c1)CCc1ccccc1C2=O

IC50 (MAPK9 (human)): > 10 µM
IC50 (PRKACA (human) [3]): > 10 µM
IC50 (PDPK1 (human) [4]): > 10 µM
SMILES: Cc1c(C(=O)N2CCOc3ccc(-c4ccc(N)nc4)cc3C2)ccc(S(C)(=O)=O)c1F
